According to patent US20250345339A1, “DOSES AND REGIMENS OF HER2 INHIBITORS” (IAMBIC THERAPEUTICS, INC., priority 2024, published 2025):
Entries after “also recorded” stand apart in the source; their conditions may differ.

Key:
wtEGFR = wtEGFR (Homo sapiens (Human), UniProt P00533); test: HotSpot radiometric kinase activity assay, EGFR WT; assay type: biochemical
Method: (§1) The purpose of the wtERBB2, ERBB2-A775_G776insYVMA (ERBB2YVMA), wtEGFR biochemical assay was to evaluate the inhibition (% inhibition and IC50 values) of the small molecule inhibitors by using the “HotSpot” radiometric kinase activity assay. HotSpot assays monitor the […] of kinase substrate by the radioactive gamma phosphate of adenosine triphosphate (33P-ATP) during biochemical reactions. HotSpot assays was performed in steps upon completion of the kinase reaction: deposition of a reaction mixture aliquot onto P81 ion exchange paper, extensive washing of the aforementioned P81 paper using phosphoric acid to remove unbound radiolabeled 33P-ATP from the P81 paper, and finally visualization and quantification of the dried P81 paper utilizing a phosphoimager. […] Typical reaction solutions (10 μL final reaction volume) contained the following buffer conditions: 20 mM Hepes (pH 7.5), 10 mM MgCl2, 1 mM EGTA, 0.01% Brij35, 0.02 mg/mL BSA, 0.1 mM Na3VO4, 2 mM DTT, 1% DMSO. The assay was primed by preparing a fresh 0.2 mg/mL solution of pEY (Sigma Cat: P7244) substrate in the reaction buffer and supplementing that solution with […] of MnCl2 as substrate cofactor (Sigma Cat: M9522). The kinase of interest was then added to the solution at the appropriate concentration (30 nM wtERBB2 from, or 20 nM ERBB2YVMA, or 4 nM wtEGFR) and gently mixed prior to delivery of compound in 100% DMSO by acoustic dispensing (Beckman Echo550). Compound, Kinase, and substrate were allowed to incubate for 20 minutes at room temperature prior to the initiation of the reaction by addition of 33P-ATP (PerkinElmer Cat: NEG602, final conc 10 μM). […] IC50 determinations were made from a plot of kinase activity as a function of inhibitor concentration fit to the 4-parameter IC50 equation with the enzyme concentration held constant using GraphPad Prism (San Diego).

ERBB2-A775_G776insYVMA = ERBB2-A775_G776insYVMA (Homo sapiens (Human), UniProt P04626, INS775YVMA); test: HotSpot radiometric kinase activity assay, HER2 YVMA; assay type: biochemical
Method: as §1

wtERBB2 = wtERBB2 (Homo sapiens (Human), UniProt P04626); test: HotSpot radiometric kinase activity assay, HER2 WT; assay type: biochemical
Method: as §1

EGFR = EGFR (Homo sapiens (Human), UniProt P00533); test: Enzyme inactivation kinetics, EGFR; assay type: biochemical; settings: Table 23
in vivo = settings: mouse, tumor/plasma
[1] = test system: BT-474 breast cancer cell line; test: BT-474 xenograft tumor growth inhibition; assay type: in vivo, mouse; settings: clinical reference compounds
Method: The tumor cells were routinely sub-cultured after confluence by trypsin-EDTA treatment, not to exceed 4-5 passages. The cells growing in an exponential growth phase were harvested and counted for tumor inoculation.
Tumor size and body weight measurement was conducted twice weekly.

KYSE410 = KYSE410 tumor model (HER2+ and KRAS G12C); settings: Compound 5 at 250 mg/kg
[2] = test system: NCI-N87-luciferase gastric cancer cell line; test: Intracranial NCI-N87-luciferase tumor model; settings: for Tumor Growth Inhibition: intracranial NCI-N87, 100 mg/kg QD
Text: The dosing duration was 37 days, started 12 days after cell inoculation. The dosing Day 1 was Day 12 post cell inoculation.
The total bioluminescent signals (photons/s) emitted from the brains after luciferin injection were used as an indicator of tumor growth and antitumor activity.

HCC1954 = HCC1954 xenograft tumor growth inhibition; assay type: in vivo, mouse
Method: HCC1954 cells were thawed and cultured in vitro, and the HCC1954 cells were harvested for in vivo inoculation. After one week of acclimation, 16 female 6-8 weeks-old mice were used. After inoculation, the tumor volume and body weight of the mice were measured three times per week. When the average tumor volume reaches about 200 mm^3, mice were randomly grouped into 2 groups according to the tumor volume and body weight. Test drugs were administrated immediately afterward. Tumor volume and body weight measurements were taken twice a week. At the end of the study, tumor and plasma samples were collected. The mouse grouping and test material treatment for tumor growth inhibition is listed Table 7. Tumor size and body weight measurement were conducted twice weekly. At the end of study, Group 1 and Group 2 were split into 2 sub-groups, dosed and samples collected as described Table 8. At the end of treatment, tumor samples were collected for pharmacodynamic (PD) analysis.

BaF3 P95Her2 = settings: 100 mg/kg PO daily for 20 days
MDAMB453 = MDAMB453 breast cancer model; settings: 100 mg/kg PO daily for 14 days
JIMT-1 = JIMT-1 breast tumor model; settings: 20/15 mg/kg PO daily for 9 then 12 days

EGFR, sequence (P00533 25-1210): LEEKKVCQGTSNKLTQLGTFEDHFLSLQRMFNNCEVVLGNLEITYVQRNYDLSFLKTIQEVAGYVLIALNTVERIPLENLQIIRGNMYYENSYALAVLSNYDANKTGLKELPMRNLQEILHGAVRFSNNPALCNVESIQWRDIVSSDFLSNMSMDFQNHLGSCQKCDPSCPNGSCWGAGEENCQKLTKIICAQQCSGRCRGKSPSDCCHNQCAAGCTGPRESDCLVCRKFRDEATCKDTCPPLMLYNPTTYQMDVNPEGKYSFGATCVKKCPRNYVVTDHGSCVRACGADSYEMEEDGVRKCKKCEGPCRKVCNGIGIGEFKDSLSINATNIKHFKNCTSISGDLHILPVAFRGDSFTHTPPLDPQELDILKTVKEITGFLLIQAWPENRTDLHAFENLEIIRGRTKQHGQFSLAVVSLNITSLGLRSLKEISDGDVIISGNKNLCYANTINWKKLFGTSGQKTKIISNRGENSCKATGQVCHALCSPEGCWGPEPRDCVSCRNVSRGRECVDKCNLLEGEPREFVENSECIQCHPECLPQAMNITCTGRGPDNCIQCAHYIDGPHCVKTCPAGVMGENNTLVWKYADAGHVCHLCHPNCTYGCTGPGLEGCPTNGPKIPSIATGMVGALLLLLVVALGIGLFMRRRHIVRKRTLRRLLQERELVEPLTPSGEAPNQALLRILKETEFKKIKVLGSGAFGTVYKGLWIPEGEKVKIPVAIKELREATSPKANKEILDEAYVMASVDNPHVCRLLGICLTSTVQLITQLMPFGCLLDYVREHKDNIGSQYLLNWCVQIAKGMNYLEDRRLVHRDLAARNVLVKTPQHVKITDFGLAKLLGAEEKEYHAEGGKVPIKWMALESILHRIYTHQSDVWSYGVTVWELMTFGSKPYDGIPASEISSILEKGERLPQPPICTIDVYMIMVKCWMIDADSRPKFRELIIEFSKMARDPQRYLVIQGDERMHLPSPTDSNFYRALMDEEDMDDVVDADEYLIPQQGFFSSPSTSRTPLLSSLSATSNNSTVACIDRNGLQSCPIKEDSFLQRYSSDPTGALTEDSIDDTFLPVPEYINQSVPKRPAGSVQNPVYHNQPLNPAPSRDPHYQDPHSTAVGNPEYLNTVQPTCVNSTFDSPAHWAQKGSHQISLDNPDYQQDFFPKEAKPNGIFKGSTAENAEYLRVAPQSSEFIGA
wtEGFR, sequence (P00533 25-1210): as above
ERBB2-A775_G776insYVMA, sequence (P04626 other isoform, or with tags, fused parts or gaps del 1-675/ins YVMA behind 775 limits assumed): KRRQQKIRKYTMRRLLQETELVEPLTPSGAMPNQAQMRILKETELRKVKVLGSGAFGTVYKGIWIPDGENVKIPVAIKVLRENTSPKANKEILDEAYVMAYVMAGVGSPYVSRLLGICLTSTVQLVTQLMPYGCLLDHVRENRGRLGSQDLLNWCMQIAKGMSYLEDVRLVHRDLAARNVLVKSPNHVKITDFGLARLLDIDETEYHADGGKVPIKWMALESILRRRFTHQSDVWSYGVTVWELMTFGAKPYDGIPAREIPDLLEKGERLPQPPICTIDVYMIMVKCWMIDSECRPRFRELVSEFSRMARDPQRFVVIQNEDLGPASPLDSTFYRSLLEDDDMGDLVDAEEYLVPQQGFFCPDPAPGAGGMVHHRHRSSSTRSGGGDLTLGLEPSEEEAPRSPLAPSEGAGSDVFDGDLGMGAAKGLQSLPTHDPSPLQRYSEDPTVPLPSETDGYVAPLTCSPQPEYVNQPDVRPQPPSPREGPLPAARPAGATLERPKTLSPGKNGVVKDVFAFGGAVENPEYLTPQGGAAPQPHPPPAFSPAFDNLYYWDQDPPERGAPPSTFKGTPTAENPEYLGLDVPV
wtERBB2, sequence (P04626 23-1255): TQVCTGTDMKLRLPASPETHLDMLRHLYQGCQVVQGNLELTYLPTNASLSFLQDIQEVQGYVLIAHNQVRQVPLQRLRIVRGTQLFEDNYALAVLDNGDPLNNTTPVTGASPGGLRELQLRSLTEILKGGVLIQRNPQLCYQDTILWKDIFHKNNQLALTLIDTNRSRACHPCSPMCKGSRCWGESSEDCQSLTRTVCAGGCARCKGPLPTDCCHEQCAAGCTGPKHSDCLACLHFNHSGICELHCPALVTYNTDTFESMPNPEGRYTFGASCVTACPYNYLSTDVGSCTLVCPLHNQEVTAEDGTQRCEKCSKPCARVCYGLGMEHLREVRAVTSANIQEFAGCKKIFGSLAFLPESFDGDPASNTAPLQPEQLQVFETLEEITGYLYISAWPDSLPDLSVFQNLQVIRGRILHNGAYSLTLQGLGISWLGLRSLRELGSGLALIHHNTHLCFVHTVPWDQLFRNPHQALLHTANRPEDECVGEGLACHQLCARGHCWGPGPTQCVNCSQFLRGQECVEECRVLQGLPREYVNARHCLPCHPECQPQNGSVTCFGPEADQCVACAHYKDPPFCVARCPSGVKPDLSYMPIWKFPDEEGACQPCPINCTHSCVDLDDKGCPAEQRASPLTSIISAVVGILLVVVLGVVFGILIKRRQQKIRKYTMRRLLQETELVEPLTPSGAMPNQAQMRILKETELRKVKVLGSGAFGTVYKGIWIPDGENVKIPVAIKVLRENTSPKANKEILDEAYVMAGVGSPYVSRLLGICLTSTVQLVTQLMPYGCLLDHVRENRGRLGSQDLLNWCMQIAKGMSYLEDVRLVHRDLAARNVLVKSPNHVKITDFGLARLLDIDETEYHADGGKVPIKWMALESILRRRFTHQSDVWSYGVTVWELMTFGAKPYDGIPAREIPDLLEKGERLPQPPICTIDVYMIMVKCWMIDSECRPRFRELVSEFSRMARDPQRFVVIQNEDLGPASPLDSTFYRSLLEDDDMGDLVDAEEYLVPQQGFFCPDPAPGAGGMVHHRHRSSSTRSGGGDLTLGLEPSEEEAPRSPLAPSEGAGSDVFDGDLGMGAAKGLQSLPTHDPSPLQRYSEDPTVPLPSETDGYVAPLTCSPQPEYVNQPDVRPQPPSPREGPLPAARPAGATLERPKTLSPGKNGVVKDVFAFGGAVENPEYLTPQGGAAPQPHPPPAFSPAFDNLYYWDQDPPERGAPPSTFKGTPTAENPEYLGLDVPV

## Cc1cc(Nc2ncnn3ccc(C4CN(C(=O)/C=C/CN(C)C)C4)c23)ccc1Oc1ccn2ncnc2c1 [Compound 1, (E)-1-(3-(4-((4-([1,2,4]triazolo[1,5-a]pyridin-7-yloxy)-3-methylphenyl)amino)pyrrolo[2,1-f][1,2,4]triazin-5-yl)azetidin-1-yl)-4-(dimethylamino)but-2-en-1-one]
wtEGFR
  IC50: < 200 nM
ERBB2-A775_G776insYVMA
  IC50: < 200 nM
wtERBB2
  IC50: < 200 nM

## C=CC(=O)N1CCN(c2ccn3ncnc(Nc4ccc(Oc5ccn6ncnc6c5)c(C)c4)c23)CC1 [Compound 3, 1-(4-(4-((4-([1,2,4]triazolo[1,5-a]pyridin-7-yloxy)-3-methylphenyl)amino)pyrrolo[2,1-f][1,2,4]triazin-5-yl)piperazin-1-yl)prop-2-en-1-one]
wtEGFR
  IC50: < 200 nM
ERBB2-A775_G776insYVMA
  IC50: < 200 nM
wtERBB2
  IC50: < 200 nM

## C=CC(=O)N1CCC(c2ccn3ncnc(Nc4ccc(Oc5ccn6ncnc6c5)c(C)c4)c23)CC1 [Compound 4, 1-(4-(4-((4-([1,2,4]triazolo[1,5-a]pyridin-7-yloxy)-3-methylphenyl)amino)pyrrolo[2,1-f][1,2,4]triazin-5-yl)piperidin-1-yl)prop-2-en-1-one]
wtEGFR
  IC50: < 200 nM
ERBB2-A775_G776insYVMA
  IC50: < 200 nM
wtERBB2
  IC50: < 200 nM

## C=CC(=O)N1CC(c2ccn(-c3ccn4ncnc(Nc5ccc(Oc6ccn7ncnc7c6)c(C)c5)c34)n2)C1 [Compound 8, 1-(3-(1-(4-((4-([1,2,4]triazolo[1,5-a]pyridin-7-yloxy)-3-methylphenyl)amino)pyrrolo[2,1-f][1,2,4]triazin-5-yl)-1H-pyrazol-3-yl)azetidin-1-yl)prop-2-en-1-one]
wtEGFR
  IC50: < 200 nM
ERBB2-A775_G776insYVMA
  IC50: < 200 nM
wtERBB2
  IC50: < 200 nM

## Cc1cc(Nc2ncnn3ccc(C4CCCN(C(=O)/C=C/CN(C)C)CC4)c23)ccc1Oc1ccn2ncnc2c1 (centres unmarked) [Compound 12, (E)-1-(4-(4-((4-([1,2,4]triazolo[1,5-a]pyridin-7-yloxy)-3-methylphenyl)amino)pyrrolo[2,1-f][1,2,4]triazin-5-yl)azepan-1-yl)-4-(dimethylamino)but-2-en-1-one]
ERBB2-A775_G776insYVMA
  IC50: < 200 nM
wtERBB2
  IC50: < 200 nM

## Cc1cc(Nc2ncnn3ccc(C4CC5(C4)CN(C(=O)/C=C/CN(C)C)C5)c23)ccc1Oc1ccn2ncnc2c1 [Compound 13, (E)-1-(6-(4-((4-([1,2,4]triazolo[1,5-a]pyridin-7-yloxy)-3-methylphenyl)amino)pyrrolo[2,1-f][1,2,4]triazin-5-yl)-2-azaspiro[3.3]heptan-2-yl)-4-(dimethylamino)but-2-en-1-one]
ERBB2-A775_G776insYVMA
  IC50: < 200 nM
wtERBB2
  IC50: < 200 nM

## Cc1cc(Nc2ncnn3ccc(-c4cnn(CCNC(=O)/C=C/CN(C)C)c4)c23)ccc1Oc1ccn2ncnc2c1 [Compound 14, (E)-N-(2-(4-(4-((4-([1,2,4]triazolo[1,5-a]pyridin-7-yloxy)-3-methylphenyl)amino)pyrrolo[2,1-f][1,2,4]triazin-5-yl)-1H-pyrazol-1-yl)ethyl)-4-(dimethylamino)but-2-enamide]
wtERBB2
  IC50: < 200 nM

## Cc1noc2ccc(C(=O)Nc3ccc4[nH]c(CN5CCCC5)nc4c3)cc12 [ELVN-002]
EGFR
  EGFR kinact (s − 1): 1.1 × 10^−2 s − 1
  HER2 vs. EGFR Kinetic Selectivity: 47
  Ki: 680 nM

## C=CC(=O)N1CCC(Oc2cc3c(Nc4ccc(Cl)c(Cl)c4F)ncnc3cc2OC)CC1 [Poziotinib]
In vivo
  Kp at 4 h: 0.36

## CCOc1cc2ncnc(Nc3ccc(Oc4ccn5ncnc5c4)c(C)c3)c2cc1NC(=O)/C(F)=C/[C@H]1CCCN1C [SPH5030]
[1]
  TR compared with Compound 5: significantly less TR than Compound 5

## Cc1cc(Nc2ncnc3ccc(NC4=NC(C)(C)CO4)cc23)ccc1Oc1ccn2ncnc2c1 [Tucatinib]
KYSE410
  anti-tumor activity, in words: ineffective; also recorded: weak or no activity; also recorded: weak/no activity
[2]; NCI-N87-luc intracranial xenograft
  antitumor effect in intracranial model, in words: only modest single agent effect
[2]; Day 5
  Tumor Growth Inhibition: 9%
[2]; Day 9
  Tumor Growth Inhibition: −11%
[2]; Day 13
  Tumor Growth Inhibition: −14%
[2]; Day 16
  Tumor Growth Inhibition: 18%
[2]; Day 19
  Tumor Growth Inhibition: 45%
[2]; Day 23
  Tumor Growth Inhibition: 25%
[2]; Day 26
  Tumor Growth Inhibition: 30%
HCC1954; HCC1954, 100 mg/kg PO daily for 21 days
  TGI (tumor growth inhibition): 30%
HCC1954; HCC1954, comparator
  anti-tumor effect: tumor stasis
HCC1954; HCC1954 xenograft, Compound 5 100 and 250 mg/kg, tucatinib 100 mg/kg
  anti-tumor effect (FIG. 29): did not achieve tumor stasis
BaF3 P95Her2
  TGI (tumor growth inhibition): 99%
MDAMB453
  TGI (tumor growth inhibition): 90%
[1]
  TR compared with Compound 5: significantly less TR than Compound 5

## Cc1nc(NC(=O)N2CCC[C@H]2C(N)=O)sc1-c1ccnc(C(C)(C)C(F)(F)F)c1 [alpilisib]
JIMT-1
  TGI: 64%
